Patent publication US8076487B2, “Pyridone derivative and herbicide” (Kumiai Chemical Industry Co., Ltd., priority 2006, dated 2011)

How the values were obtained:
Assay type in all cases: in vivo
[1] = tested on: Japanese bulrush (Scirpus juncoides Roxb.); experiment: Test Example 1: herbicidal effect by soil application to paddy field; details: paddy field soil application; active ingredient 1,000 g per 1 hectare; wettable powder added dropwise to water surface the day after sowing; examined on the 21st day after application
In short: (§1)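 Plants were sown in flooded (3 cm) paddy soil and evaluated for herbicidal effect 21 days after soil application in a greenhouse.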

[2] = tested on: early watergrass (Echinochloa oryzicola Vasing); experiment: as above; details: paddy field soil application; active ingredient 1,000 g per 1 hectare; wettable powder added dropwise to water surface the day after sowing; examined on the 21st day after application
In short: as §1

[3] = tested on: heartshape false pickerelweed (Monochoria vaginalis (Burm.f.) C.Presl); experiment: as above; details: paddy field soil application; active ingredient 1,000 g per 1 hectare; wettable powder added dropwise to water surface the day after sowing; examined on the 21st day after application
In short: as §1

[4] = tested on: barnyardgrass (Echinochloa crus-galli (L.) P. Beauv. var. crus-galli); experiment: Test Example 3: herbicidal effect by application to upland field (foliage treatment); details: 14th day after application; for herbicidal effect, Barnyardgrass: foliage treatment, 1,000 g active ingredient per 1 hectare, greenhouse; for herbicidal effect (index), Barnyardgrass: foliage treatment, plants grown two weeks, 1,000 g active ingredient per hectare
Protocol: (§2) [table] Test Example 3 Test on Herbicidal Effect by Application to Upland Field In a 80 cm2 plastic pot, field soil was filled. Seeds of barnyardgrass (Echinochloa crus-galli (L.) P. Beauv. var. crus-galli), green foxtail (Setaria viridis (L.) P. Beauv.), velvetleaf (Abutilon theophrasti medicus), and slender amaranth (Amaranthus viridis L.) were sown and allowed to grow for two weeks in a greenhouse. Thereafter, the wettable powder prepared according to Formulation Example 1 was diluted in water and a 1,000 liter equivalent amount per 1 hectare so that the active ingredient becomes 1,000 g per 1 hectare was sprayed using a small sprayer from a top of the plants through its entire body for foliage treatment. Then, on the 14th day after the application to the plants grew in a greenhouse, the herbicidal effect was examined in accordance with a standard shown in Table 34.

[5] = tested on: green foxtail (Setaria viridis (L.) P. Beauv.); experiment: as above; details: 14th day after application; for herbicidal effect, Green Foxtail: foliage treatment, 1,000 g active ingredient per 1 hectare, greenhouse; for herbicidal effect (index), Green Foxtail: foliage treatment, plants grown two weeks, 1,000 g active ingredient per hectare
Protocol: as §2

[6] = tested on: slender amaranth (Amaranthus viridis L.); experiment: as above; details: 14th day after application; for herbicidal effect, Slender Amaranth: foliage treatment, 1,000 g active ingredient per 1 hectare, greenhouse; for herbicidal effect (index), Slender Amaranth: foliage treatment, plants grown two weeks, 1,000 g active ingredient per hectare
Protocol: as §2

[7] = tested on: velvetleaf (Abutilon theophrasti medicus); experiment: as above; details: 14th day after application; for herbicidal effect, Velvetleaf: foliage treatment, 1,000 g active ingredient per 1 hectare, greenhouse; for herbicidal effect (index), Velvetleaf: foliage treatment, plants grown two weeks, 1,000 g active ingredient per hectare
Protocol: as §2

Structure (SMILES)	herbicidal effect, Scirpus juncoides Roxb. [1]	herbicidal effect, Echinochloa oryzicola Vasing [2]	herbicidal effect, Monochoria vaginalis (Burm. f.) C. Presl [3]	herbicidal effect, Barnyardgrass [4]	herbicidal effect, Green Foxtail [5]	herbicidal effect, Slender Amaranth [6]	herbicidal effect, Velvetleaf [7]	herbicidal effect (index), Barnyardgrass [4]	herbicidal effect (index), Green Foxtail [5]	herbicidal effect (index), Slender Amaranth [6]	herbicidal effect (index), Velvetleaf [7]
COCC(C)n1c(C(F)(F)F)ccc(C(=O)C2=C(O)C3C=CC(C3)C2=O)c1=O (stereo not drawn) [III-44]	5 (90% or more of herbicidal effect and crop phytotoxicity)	5 (90% or more of herbicidal effect and crop phytotoxicity)	5 (90% or more of herbicidal effect and crop phytotoxicity)	4 (70 to less than 90% of herbicidal effect and crop phytotoxicity)	5 (90% or more of herbicidal effect and crop phytotoxicity)	5 (90% or more of herbicidal effect and crop phytotoxicity)	5 (90% or more of herbicidal effect and crop phytotoxicity)				
Cc1ccc(C(=O)COc2c(C(=O)c3ccc(C(F)(F)F)n(CC4CCCO4)c3=O)cnn2C)cc1 (stereo not drawn) [IV-139]	5 (90% or more of herbicidal effect and crop phytotoxicity)	5 (90% or more of herbicidal effect and crop phytotoxicity)	5 (90% or more of herbicidal effect and crop phytotoxicity)	5 (90% or more of herbicidal effect and crop phytotoxicity)	4 (70 to less than 90% of herbicidal effect and crop phytotoxicity)	5 (90% or more of herbicidal effect and crop phytotoxicity)	5 (90% or more of herbicidal effect and crop phytotoxicity)				
C=CCn1c(C(F)(F)F)ccc(C(=O)c2cnn(CC)c2OS(=O)(=O)CCC)c1=O [IV-12]	5 (90% or more of herbicidal effect and crop phytotoxicity)	5 (90% or more of herbicidal effect and crop phytotoxicity)	5 (90% or more of herbicidal effect and crop phytotoxicity)	5 (90% or more of herbicidal effect and crop phytotoxicity)	4 (70 to less than 90% of herbicidal effect and crop phytotoxicity)	5 (90% or more of herbicidal effect and crop phytotoxicity)	5 (90% or more of herbicidal effect and crop phytotoxicity)				
CCn1c(C(F)(F)F)ccc(C(=O)C2=C(O)C3CCC(C3)C2=O)c1=O (stereo not drawn) [III-2]	5 (90% or more of herbicidal effect and crop phytotoxicity)	5 (90% or more of herbicidal effect and crop phytotoxicity)	5 (90% or more of herbicidal effect and crop phytotoxicity)	5 (90% or more of herbicidal effect and crop phytotoxicity)	5 (90% or more of herbicidal effect and crop phytotoxicity)	5 (90% or more of herbicidal effect and crop phytotoxicity)	5 (90% or more of herbicidal effect and crop phytotoxicity)				
CCn1c(C(F)(F)F)ccc(C(=O)C2=C(O)CCCC2=O)c1=O [I-2]	5 (90% or more of herbicidal effect and crop phytotoxicity)	5 (90% or more of herbicidal effect and crop phytotoxicity)	5 (90% or more of herbicidal effect and crop phytotoxicity)					5 (90% or more of herbicidal effect and crop phytotoxicity)	5 (90% or more of herbicidal effect and crop phytotoxicity)	5 (90% or more of herbicidal effect and crop phytotoxicity)	5 (90% or more of herbicidal effect and crop phytotoxicity)
CC(CCn1c(C(F)(F)F)ccc(C(=O)C2=C(O)CCCC2=O)c1=O)=C(F)F [I-27]	5 (90% or more of herbicidal effect and crop phytotoxicity)	5 (90% or more of herbicidal effect and crop phytotoxicity)	5 (90% or more of herbicidal effect and crop phytotoxicity)					4 (70 to less than 90% of herbicidal effect and crop phytotoxicity)	3 (50 to less than 70% of herbicidal effect and crop phytotoxicity)	5 (90% or more of herbicidal effect and crop phytotoxicity)	5 (90% or more of herbicidal effect and crop phytotoxicity)
CCN(C(=O)OC(C)(C)C)n1c(C(F)(F)F)ccc(C(=O)C2=C(O)CCCC2=O)c1=O [I-195]	5 (90% or more of herbicidal effect and crop phytotoxicity)	5 (90% or more of herbicidal effect and crop phytotoxicity)	5 (90% or more of herbicidal effect and crop phytotoxicity)	5 (90% or more of herbicidal effect and crop phytotoxicity)	4 (70 to less than 90% of herbicidal effect and crop phytotoxicity)	3 (50 to less than 70% of herbicidal effect and crop phytotoxicity)	5 (90% or more of herbicidal effect and crop phytotoxicity)				
Cn1ncc(C(=O)c2ccc(C(F)(F)F)n(Cc3c(C(F)(F)F)nn(C)c3OC(F)F)c2=O)c1O [IV-108]	5 (90% or more of herbicidal effect and crop phytotoxicity)	5 (90% or more of herbicidal effect and crop phytotoxicity)	4 (70 to less than 90% of herbicidal effect and crop phytotoxicity)	4 (70 to less than 90% of herbicidal effect and crop phytotoxicity)	4 (70 to less than 90% of herbicidal effect and crop phytotoxicity)	4 (70 to less than 90% of herbicidal effect and crop phytotoxicity)	5 (90% or more of herbicidal effect and crop phytotoxicity)				
CNn1c(C(F)(F)F)ccc(C(=O)C2=C(O)CCCC2=O)c1=O [I-157]	5 (90% or more of herbicidal effect and crop phytotoxicity)	5 (90% or more of herbicidal effect and crop phytotoxicity)	5 (90% or more of herbicidal effect and crop phytotoxicity)	5 (90% or more of herbicidal effect and crop phytotoxicity)	5 (90% or more of herbicidal effect and crop phytotoxicity)	5 (90% or more of herbicidal effect and crop phytotoxicity)	5 (90% or more of herbicidal effect and crop phytotoxicity)				
CC(C)Nn1c(C(F)(F)F)ccc(C(=O)C2=C(O)CCCC2=O)c1=O [I-160]	5 (90% or more of herbicidal effect and crop phytotoxicity)	5 (90% or more of herbicidal effect and crop phytotoxicity)	5 (90% or more of herbicidal effect and crop phytotoxicity)	4 (70 to less than 90% of herbicidal effect and crop phytotoxicity)	3 (50 to less than 70% of herbicidal effect and crop phytotoxicity)	5 (90% or more of herbicidal effect and crop phytotoxicity)	5 (90% or more of herbicidal effect and crop phytotoxicity)				
CCC(C)n1c(C(F)(F)F)ccc(C(=O)C2=C(O)C3CCC(C3)C2=O)c1=O (stereo not drawn) [III-8]	5 (90% or more of herbicidal effect and crop phytotoxicity)	5 (90% or more of herbicidal effect and crop phytotoxicity)	5 (90% or more of herbicidal effect and crop phytotoxicity)	5 (90% or more of herbicidal effect and crop phytotoxicity)	5 (90% or more of herbicidal effect and crop phytotoxicity)	3 (50 to less than 70% of herbicidal effect and crop phytotoxicity)	5 (90% or more of herbicidal effect and crop phytotoxicity)				
CCCS(=O)(=O)Oc1c(C(=O)c2ccc(C(F)(F)F)n(-c3ccc4c(c3)OCO4)c2=O)cnn1C(C)C [IV-100]	5 (90% or more of herbicidal effect and crop phytotoxicity)	5 (90% or more of herbicidal effect and crop phytotoxicity)	5 (90% or more of herbicidal effect and crop phytotoxicity)	5 (90% or more of herbicidal effect and crop phytotoxicity)	5 (90% or more of herbicidal effect and crop phytotoxicity)	4 (70 to less than 90% of herbicidal effect and crop phytotoxicity)	5 (90% or more of herbicidal effect and crop phytotoxicity)				
